Consider three molecules from patent publication US20030157084A1, “Methods for preparing purified prostaglandin E synthase” (priority 2001, published 2003).

“Also recorded” adds a separate entry of the source.

Series [1] concerns the target T1, purified His6-hPGES (Homo sapiens, UniProt O14684).
T1 sequence (O14684 1-152): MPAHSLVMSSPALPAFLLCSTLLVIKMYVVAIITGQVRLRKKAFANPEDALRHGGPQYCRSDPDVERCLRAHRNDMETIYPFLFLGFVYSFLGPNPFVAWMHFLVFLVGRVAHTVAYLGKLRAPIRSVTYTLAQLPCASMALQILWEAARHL
Briefly: LTC4 synthase activity of purified His6-hPGES with LTA4. The format is biochemical. Further details: made in house; host or cells: E. coli BL21(DE3) with pLysSL. The note with it: 37 ° C.; up to 100 μg/ml enzyme, 30 μM LTA4, 10 mM GSH, pH 7.4.

The target of series [2] is T1, purified His6-hPGES. Briefly: Glutathione transferase (GST) activity of purified His6-hPGES with CDNB. Further details: made in house; host or cells: E. coli BL21(DE3) with pLysSL. The note with it: purified His6-hPGES incubated with LTA4. It counts as biochemical. The protocol: Glutathione transferase (GST) activity (glutathione conjugation) was assayed with the classical model substrate for GSTs, p-chloro-2,4-dinitrobenzene (CDNB). […] Formation of product was detected at 340 nm (molar absorption coefficient for the product, GS-DNB, is 9.6 mM^−1 cm^−1).

The test system of a further series is A549 cells. Briefly: Induction of PGE synthase and cyclooxygenase-2 in A549 cells. The format is cell-based. Conditions: IL-1β 1 ng/ml. The protocol:
Microsomal fractions of A549 cells cultured with or without IL-1 β 1 ng/ml) for 0, 12, 24, 36 or 72 hours were subjected to SDS-PAGE and Western blot analysis. As positive control, the membrane fraction from bacteria expressing human PGE synthase was included. In all lanes of the gel, 10 μg of total protein was analyzed, except for the human PGE synthase where 2 μg was loaded. The Western blot was then incubated with antipeptide antiserum against PGE synthase. The blot was then stripped and incubated with antiserum against COX-2.
In order to study the possible correlation between the result from the Western blot and PGE synthase activity, the corresponding microsomes were incubated in the presence of PGH2 and reduced glutathione as described above. Briefly, microsomes (0.03 mg/ml) were incubated with PGH2 (11 μM) for 30 seconds at 0° C., followed by extraction and analysis by RP-HPLC. […] In addition, no corresponding activity was detected in the cytosolic fractions.

Series [3] in a line: Kinetic properties of other enzymes with PGE synthase activity (literature). The note with it: cytosolic PGES versus His6-hPGES. The format is biochemical.
The conditions of series [4]: 24° C.; Tanioka et al. (2000); cited from earlier work.

`CCCCC/C=C\C\C=C/C=C/C=C/[C@@H]1O[C@H]1CCCC(=O)O` [LTA4, leukotriene (LT) A4]: the “Specific activity (LTC4 synthase activity)” value at purified His6-hPGES [1] was “No activity above background could be detected; also recorded: Not detectable above background”. Also, at purified His6-hPGES [2], the “GST activity after incubation of the enzyme with LTA4” value is on record as “no GST activity could be detected”.

For “IL-1β: proinflammatory cytokine interleukin-1β, added to A549 cells at 1 ng/ml”, in the series on A549 cells (microsomal fractions, 0-72 hours), the “COX-2 and PGE synthase protein expression (Western blot)” value is “tandem upregulation of COX-2 and PGE synthase proteins”. For the same molecule, the “PGE synthase activity in microsomes” value in the series with A549 cells (up to 72 hours, microsomes 0.03 mg/ml, PGH2 11 μM, 30 seconds at 0° C.) was “increase over time”.

B1: Cytosolic PGES LPS-induced: enzyme with PGE synthase activity, Rat, brain (Tanioka et al. 2000); recently identified cytosolic PGES (protein, UniProt P83868 1-160, looked up)
Prostaglandin E synthase 3: MQPASAKWYDRRDYVFIEFCVEDSKDVNVNFEKSKLTFSCLGGSDNFKHLNEIDLFHCIDPNDSKHKRTDRSILCCLRKGESGQSWPRLTKERAKLNWLSVDFNNWKDWEDDSDEDMSNFDRFSEMMDHMGGDEDVDLPEVDGADDDSQDSDDEKMPDLE
As for B1, the “Vmax compared with specific activity of purified His6-hPGES, times lower” value in series [3] is “about 1,000 times”. In series [4], the “published Vmax” value is 0.19 µmol/min/mg.
